# According to patent US20110104805A1, “Pluripotent Stem Cells” (CENTOCOR ORTHO BIOTECH INC., priority 2009, published 2011):
# How the values were obtained:
# AFD1 cells [1] = experiment: qRT-PCR gene expression after two passages on surface modified plate 4 with Rho kinase inhibitor; type: cell-based; conditions: AFD1 passaged twice on modified surface 4 versus control plates
# Experimental: Cells were passaged twice on surface modified plate 4 in the presence of either Y-27632 or H1152-glycyl and were tested for the expression of genes associated with pluripotency by qRT-PCR (FIG. 12). Expression of genes associated with and required for pluripotency (OCT4, NANOG, SOX2, TERT, and CRIPTO/TDGF) was maintained in AFD1 cells grown on modified surface 4 versus cells grown on control plates. […] This may have been due to increased expression of NANOG, which inhibits differentiation by suppressing expression of extra-embryonic ectoderm or trophoblast associated genes. Additionally, this decrease in expression of extra-embryonic ectoderm or trophoblast associated genes could occur through differential adhesion and proliferation of cells more pluripotent, and less differentiated, on modified surface 4 versus control plates.
# AFD1 cells [2] = experiment: Attachment / plating efficiency on surface modified plate 4 without feeder cells or adlayer; type: cell-based; conditions: surface modified plate 4, MEF conditioned media
# Experimental: The pluripotent stem cell line AFD1, was maintained in MEF conditioned media on Nunclon Delta™ plates treated with a 1:30 dilution of growth factor reduced MATRIGEL™ prior to study. Cells were dissociated from the surface for passage by 1 mg/ml dispase dissociation. AFD1 cells were then seeded onto untreated wells of surface modified plate 4 (6-well format). In parallel, AFD1 cells were also plated onto Nunclon Delta™ plates treated with 1:30 dilution of growth factor reduced MATRIGEL™ to provide as positive controls. In all treatments cells were maintained in MEF conditioned media. AFD1 cells seeded onto surface modified plate 4 did attach, however the attachment efficiency was much lower than on control plates (FIG. 11). […] Cells were thereafter maintained in a constant 10 μM Y-27632 concentration or a reduced 1 μM concentration of H1152-glycyl, respectively, with daily media change.
smiles,measurement,setting,value
"Cc1cncc2cccc(S(=O)(=O)N3CCCN(C(=O)CN)C[C@@H]3C)c12.Cl.Cl [Clone H1152-glycyl, (S)-(+)-4-Glycyl-2-methyl-1-[(4-methyl-5-isoquinolinyl)sulfonyl]hexahydro-1H-1,4-diazepine dihydrochloride]","Expression of genes associated with and required for pluripotency (OCT4, NANOG, SOX2, TERT, and CRIPTO/TDGF)",AFD1 cells [1],maintained
same,"relative expression of AFP, HAND2, and GATA2 (spontaneous differentiation genes)",AFD1 cells [1],decreased significantly
same,plating efficiency of the cells,AFD1 cells [2]; 3 μM for the first 24 hours in culture,significantly increased
C[C@@H](N)[C@H]1CC[C@H](C(=O)Nc2ccncc2)CC1 [Clone Y-27632],"Expression of genes associated with and required for pluripotency (OCT4, NANOG, SOX2, TERT, and CRIPTO/TDGF)",AFD1 cells [1],maintained
same,"relative expression of AFP, HAND2, and GATA2 (spontaneous differentiation genes)",AFD1 cells [1],decreased significantly
same,plating efficiency of the cells,AFD1 cells [2]; 10 μM for the first 24 hours in culture,significantly increased
